Results from ChEMBL document CHEMBL1201862, “PubChem BioAssay data set” (2004).
Values belong to the molecule of their own block, whether it stands above or below them. Activity calls are given as the source filed them.

Legend:
[1] = target: T1, Rac GTPase-activating protein 1 (Homo sapiens, UniProt Q9H0H5); assay: blockers of MgcRacGAP-driven Rac1 GTP hydrolysis – biochemical, ADP Hunter fluorescence, primary and confirmatory, confirmation (AID 624330); type: functional
T1 sequence (Q9H0H5 whole entry): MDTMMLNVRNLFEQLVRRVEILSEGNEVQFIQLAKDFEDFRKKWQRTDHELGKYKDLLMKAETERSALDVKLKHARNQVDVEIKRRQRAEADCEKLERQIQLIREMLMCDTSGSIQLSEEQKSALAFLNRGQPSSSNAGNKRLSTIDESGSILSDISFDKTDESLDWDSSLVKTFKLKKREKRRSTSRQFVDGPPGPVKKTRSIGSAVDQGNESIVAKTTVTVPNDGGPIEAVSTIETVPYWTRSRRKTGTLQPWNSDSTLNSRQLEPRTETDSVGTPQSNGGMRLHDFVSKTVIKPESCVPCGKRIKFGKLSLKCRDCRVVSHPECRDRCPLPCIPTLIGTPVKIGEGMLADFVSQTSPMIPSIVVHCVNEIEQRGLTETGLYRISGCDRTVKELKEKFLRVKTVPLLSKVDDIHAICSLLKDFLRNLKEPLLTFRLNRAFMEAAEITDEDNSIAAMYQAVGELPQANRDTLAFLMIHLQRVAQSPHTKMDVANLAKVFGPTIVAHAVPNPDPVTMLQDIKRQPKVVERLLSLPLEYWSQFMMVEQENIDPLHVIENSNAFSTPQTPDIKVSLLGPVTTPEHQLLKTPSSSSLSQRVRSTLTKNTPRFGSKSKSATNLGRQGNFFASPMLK

[2] = target: Large T antigen (Simian virus 40, UniProt P03070); type: functional, Betapolyomavirus macacae;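 further: Confirmatory-stage PubChem screen for compounds that inhibit SV40 T antigen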
Large T antigen, sequence (P03070 whole entry): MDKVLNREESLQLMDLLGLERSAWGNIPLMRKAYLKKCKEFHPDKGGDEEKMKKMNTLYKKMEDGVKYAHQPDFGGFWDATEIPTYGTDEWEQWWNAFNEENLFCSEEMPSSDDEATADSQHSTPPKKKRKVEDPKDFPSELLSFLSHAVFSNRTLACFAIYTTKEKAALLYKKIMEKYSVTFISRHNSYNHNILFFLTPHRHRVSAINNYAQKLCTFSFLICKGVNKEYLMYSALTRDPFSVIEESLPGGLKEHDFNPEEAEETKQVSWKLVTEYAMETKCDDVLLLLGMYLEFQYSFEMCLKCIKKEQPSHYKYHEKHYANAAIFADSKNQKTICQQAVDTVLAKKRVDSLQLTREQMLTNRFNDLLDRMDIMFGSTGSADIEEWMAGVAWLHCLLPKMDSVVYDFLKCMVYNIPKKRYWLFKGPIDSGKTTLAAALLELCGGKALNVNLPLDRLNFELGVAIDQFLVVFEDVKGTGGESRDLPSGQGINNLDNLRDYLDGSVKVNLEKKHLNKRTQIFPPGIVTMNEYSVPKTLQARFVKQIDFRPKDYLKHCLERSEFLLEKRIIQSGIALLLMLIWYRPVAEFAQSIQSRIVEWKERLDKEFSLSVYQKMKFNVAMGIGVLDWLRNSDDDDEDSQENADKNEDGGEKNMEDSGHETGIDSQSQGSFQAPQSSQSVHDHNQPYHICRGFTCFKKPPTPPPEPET

[3] = target: Beta-2 adrenergic receptor (Homo sapiens, UniProt P07550); assay: ADRB2 activation measured by internalization – cell-based, FAP fluorogen, flow cytometry, cherry pick 1, dose response (AID 588763); type: functional
Beta-2 adrenergic receptor, sequence (P07550 whole entry): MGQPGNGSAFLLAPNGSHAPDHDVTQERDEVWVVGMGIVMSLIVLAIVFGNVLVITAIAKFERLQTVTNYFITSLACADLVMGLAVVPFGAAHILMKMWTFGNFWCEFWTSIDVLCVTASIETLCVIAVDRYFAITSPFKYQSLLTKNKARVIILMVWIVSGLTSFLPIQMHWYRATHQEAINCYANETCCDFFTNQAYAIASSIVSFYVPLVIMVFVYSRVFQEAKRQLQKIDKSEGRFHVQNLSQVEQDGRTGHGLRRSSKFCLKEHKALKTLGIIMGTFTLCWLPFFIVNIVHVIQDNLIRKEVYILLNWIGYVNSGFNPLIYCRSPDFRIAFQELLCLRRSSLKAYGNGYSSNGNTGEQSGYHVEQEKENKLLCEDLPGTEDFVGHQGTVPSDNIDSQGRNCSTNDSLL

[4] = fluconazole-exposed Candida albicans growth modulators – fluorescence, retest, confirmation (AID 2467); type: functional, cell-based
[5] = target: T2, Serine/threonine-protein phosphatase (Candida dubliniensis (strain CD36 / CBS 7987 / NCPF 3949 / NRRLY-17841) (Yeast), UniProt B9W6M3); assay: blockers of CaCl2-induced CDRE-lacZ signaling – S. cerevisiae, luminescence, secondary, dose response (AID 2388); type: functional, cell-based;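 further: yeast reporter cells carrying a calcineurin-responsive lacZ construct stimulated with calcium chloride; luminescent beta-galactosidase reporter signal in whole cells rather than isolated phosphatase activity; potency for inhibition where a drop in reporter signal means calcineurin blockade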
T2 sequence (B9W6M3 whole entry): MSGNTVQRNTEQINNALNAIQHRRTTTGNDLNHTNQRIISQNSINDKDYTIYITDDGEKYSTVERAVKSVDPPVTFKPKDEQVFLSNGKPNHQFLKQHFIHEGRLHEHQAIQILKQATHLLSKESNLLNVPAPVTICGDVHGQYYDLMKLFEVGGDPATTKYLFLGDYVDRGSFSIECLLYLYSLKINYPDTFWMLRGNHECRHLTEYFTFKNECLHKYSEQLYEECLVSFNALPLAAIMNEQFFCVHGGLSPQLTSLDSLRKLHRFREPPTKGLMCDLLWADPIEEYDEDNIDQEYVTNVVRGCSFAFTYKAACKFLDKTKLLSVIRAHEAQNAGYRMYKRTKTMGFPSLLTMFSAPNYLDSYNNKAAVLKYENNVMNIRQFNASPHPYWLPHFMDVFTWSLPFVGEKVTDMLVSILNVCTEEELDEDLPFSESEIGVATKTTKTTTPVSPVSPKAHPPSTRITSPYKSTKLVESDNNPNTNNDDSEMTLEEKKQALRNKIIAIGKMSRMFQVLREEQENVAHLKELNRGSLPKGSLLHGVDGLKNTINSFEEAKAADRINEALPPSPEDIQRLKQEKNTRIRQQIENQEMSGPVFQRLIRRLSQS

[6] = NIH-3T3 fibroblast cytotoxicity, dose response, cytotoxicity control, cell-based, fluorescence, Alamar Blue, secondary assay (AID 2327); type: functional;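 further: NIH-3T3 mouse fibroblasts cultured with fluconazole at 8 µg/mL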
[7] = target: ATP-dependent molecular chaperone HSP82 (Candida albicans (strain WO-1) (Yeast), UniProt C4YTQ8); assay: steroid-induced GRE reporter decrease in yeast – S. cerevisiae, luminescence, Hsp90 inhibitor project, dose response (AID 2400); type: functional, cell-based;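 further: beta-galactosidase luminescence from glucocorticoid response element reporter as proxy for Hsp90 function; inhibitor potency where signal loss means Hsp90 inhibition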
ATP-dependent molecular chaperone HSP82, sequence (C4YTQ8 whole entry): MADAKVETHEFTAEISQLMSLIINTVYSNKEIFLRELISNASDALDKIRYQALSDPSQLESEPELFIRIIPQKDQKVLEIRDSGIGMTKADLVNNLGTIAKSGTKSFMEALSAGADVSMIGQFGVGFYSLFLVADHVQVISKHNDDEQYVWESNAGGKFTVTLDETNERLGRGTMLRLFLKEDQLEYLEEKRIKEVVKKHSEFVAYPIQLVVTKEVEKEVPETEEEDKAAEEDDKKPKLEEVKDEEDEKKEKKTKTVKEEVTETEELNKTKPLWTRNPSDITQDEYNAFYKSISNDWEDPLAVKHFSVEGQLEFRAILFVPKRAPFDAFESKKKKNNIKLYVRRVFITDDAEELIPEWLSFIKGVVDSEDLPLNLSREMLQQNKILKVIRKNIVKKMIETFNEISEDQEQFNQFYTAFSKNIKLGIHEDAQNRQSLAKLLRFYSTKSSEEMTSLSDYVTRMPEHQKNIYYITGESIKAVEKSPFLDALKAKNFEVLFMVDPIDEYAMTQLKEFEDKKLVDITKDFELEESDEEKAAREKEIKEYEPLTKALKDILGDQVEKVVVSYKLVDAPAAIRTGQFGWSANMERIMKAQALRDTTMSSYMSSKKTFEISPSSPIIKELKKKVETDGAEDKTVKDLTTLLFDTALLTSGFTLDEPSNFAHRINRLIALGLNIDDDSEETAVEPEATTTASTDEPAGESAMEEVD

[8] = target: T3, Fatty acid synthase (Homo sapiens, UniProt P49327); assay: inhibition of human FAS-TE enzyme activity – biochemical, endpoint fluorescence intensity, uHTS hits, dose response (AID 624327); type: functional;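 further: fluorescence from hydrolysis of an O-methyl fluorescein acyl ester substrate by the enzyme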
T3 sequence (P49327 whole entry): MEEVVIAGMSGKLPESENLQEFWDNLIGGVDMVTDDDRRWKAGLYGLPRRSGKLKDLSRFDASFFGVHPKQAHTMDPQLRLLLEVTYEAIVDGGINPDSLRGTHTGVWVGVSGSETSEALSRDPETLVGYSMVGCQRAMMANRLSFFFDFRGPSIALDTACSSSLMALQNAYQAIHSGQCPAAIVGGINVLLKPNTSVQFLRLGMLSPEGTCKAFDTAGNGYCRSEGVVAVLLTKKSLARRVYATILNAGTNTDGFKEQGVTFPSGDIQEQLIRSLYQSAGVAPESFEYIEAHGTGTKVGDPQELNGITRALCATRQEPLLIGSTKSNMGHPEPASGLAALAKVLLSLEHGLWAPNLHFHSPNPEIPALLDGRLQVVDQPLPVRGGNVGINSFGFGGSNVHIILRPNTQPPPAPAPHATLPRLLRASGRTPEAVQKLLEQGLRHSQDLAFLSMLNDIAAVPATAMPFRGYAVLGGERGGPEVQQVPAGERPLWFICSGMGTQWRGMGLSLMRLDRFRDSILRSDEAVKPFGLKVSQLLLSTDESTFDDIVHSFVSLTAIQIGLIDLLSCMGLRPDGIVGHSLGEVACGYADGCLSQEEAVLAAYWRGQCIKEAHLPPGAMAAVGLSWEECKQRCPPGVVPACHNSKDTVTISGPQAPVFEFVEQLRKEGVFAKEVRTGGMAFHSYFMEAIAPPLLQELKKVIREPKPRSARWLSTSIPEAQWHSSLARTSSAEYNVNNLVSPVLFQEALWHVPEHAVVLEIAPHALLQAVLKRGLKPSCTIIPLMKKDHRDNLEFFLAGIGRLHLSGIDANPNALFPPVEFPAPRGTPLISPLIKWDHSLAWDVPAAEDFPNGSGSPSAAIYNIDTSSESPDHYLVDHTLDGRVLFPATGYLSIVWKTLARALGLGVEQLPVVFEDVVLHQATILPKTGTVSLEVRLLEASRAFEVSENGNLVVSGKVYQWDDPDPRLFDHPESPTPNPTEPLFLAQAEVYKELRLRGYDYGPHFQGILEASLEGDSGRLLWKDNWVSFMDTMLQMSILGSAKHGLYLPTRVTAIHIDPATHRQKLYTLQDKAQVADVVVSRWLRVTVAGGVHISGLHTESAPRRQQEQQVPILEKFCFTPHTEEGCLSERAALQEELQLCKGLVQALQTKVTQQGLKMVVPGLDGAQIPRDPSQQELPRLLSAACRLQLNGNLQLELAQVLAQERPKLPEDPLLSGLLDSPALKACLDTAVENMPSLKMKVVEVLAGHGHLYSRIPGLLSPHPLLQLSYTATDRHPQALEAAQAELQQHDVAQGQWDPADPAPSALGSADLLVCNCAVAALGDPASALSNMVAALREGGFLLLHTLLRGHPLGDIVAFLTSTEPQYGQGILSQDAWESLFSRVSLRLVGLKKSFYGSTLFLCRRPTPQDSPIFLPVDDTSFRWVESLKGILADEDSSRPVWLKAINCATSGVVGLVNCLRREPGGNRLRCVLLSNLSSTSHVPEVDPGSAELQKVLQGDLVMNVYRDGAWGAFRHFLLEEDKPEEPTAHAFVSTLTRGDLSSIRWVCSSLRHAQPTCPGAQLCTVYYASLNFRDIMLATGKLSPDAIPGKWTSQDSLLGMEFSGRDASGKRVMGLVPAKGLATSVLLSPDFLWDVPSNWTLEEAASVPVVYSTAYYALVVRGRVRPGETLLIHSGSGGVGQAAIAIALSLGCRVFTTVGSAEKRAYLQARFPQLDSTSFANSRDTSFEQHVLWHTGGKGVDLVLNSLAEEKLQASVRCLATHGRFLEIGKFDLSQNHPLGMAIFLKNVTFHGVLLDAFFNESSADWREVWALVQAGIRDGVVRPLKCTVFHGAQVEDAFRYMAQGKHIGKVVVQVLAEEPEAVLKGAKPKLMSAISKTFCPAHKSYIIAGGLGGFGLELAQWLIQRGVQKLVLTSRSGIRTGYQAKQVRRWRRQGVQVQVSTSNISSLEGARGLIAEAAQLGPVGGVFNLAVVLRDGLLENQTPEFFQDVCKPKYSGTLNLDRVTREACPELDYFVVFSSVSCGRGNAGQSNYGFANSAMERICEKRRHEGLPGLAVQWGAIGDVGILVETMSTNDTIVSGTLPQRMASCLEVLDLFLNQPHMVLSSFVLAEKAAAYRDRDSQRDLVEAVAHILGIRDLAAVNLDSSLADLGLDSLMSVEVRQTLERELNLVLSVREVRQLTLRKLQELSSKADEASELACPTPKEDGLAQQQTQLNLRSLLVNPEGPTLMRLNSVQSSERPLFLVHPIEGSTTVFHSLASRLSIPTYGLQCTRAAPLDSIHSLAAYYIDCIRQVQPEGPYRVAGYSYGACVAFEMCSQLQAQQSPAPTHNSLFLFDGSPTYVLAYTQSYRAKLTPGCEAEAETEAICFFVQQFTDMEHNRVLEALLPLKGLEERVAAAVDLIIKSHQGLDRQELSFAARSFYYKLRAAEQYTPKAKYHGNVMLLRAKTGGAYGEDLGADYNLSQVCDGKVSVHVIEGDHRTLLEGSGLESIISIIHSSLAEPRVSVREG

[9] = target: T3, Fatty acid synthase; assay: inhibition of human FAS-TE enzyme activity – biochemical, kinetic fluorescence intensity, dose response (AID 624326); type: functional;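 further: rate of fluorescence rise from hydrolysis of a fluorogenic O-methyl fluorescein ester substrate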
[10] = target: Low molecular weight phosphotyrosine protein phosphatase (Homo sapiens, UniProt P24666); type: functional; conditions: read-out: IC50_Mean;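 further: Dose-response confirmation assay measuring inhibition of LMPTP enzyme activity by fluorescence intensity read-out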
Low molecular weight phosphotyrosine protein phosphatase, sequence (P24666 whole entry): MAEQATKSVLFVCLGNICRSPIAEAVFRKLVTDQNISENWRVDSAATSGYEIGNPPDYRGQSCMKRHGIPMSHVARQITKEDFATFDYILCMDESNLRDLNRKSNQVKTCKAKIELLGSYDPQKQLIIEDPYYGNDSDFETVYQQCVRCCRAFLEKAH

[11] = target: T4, Dual specificity protein phosphatase 6 (Rattus norvegicus, UniProt Q64346); assay: inhibition of rat DUSP6 enzyme activity – biochemical, in vitro, primary screen (AID 425)
T4 sequence (Q64346 whole entry): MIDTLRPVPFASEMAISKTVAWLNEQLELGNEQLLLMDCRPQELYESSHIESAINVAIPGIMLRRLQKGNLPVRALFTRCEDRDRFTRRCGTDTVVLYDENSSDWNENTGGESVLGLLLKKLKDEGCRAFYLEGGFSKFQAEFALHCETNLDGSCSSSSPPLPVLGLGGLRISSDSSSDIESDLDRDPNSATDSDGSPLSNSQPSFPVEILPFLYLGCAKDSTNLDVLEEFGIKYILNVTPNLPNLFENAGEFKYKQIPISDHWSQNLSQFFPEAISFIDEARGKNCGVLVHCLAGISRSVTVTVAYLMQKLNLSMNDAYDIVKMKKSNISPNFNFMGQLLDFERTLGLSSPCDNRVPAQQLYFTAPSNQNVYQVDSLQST

[12] = target: T5, Interleukin-8 (Homo sapiens, UniProt P10145); assay: Dose Response confirmation of uHTS small molecule hits for cystic fibrosis induced NFkb Inhibitors in a TNFa-induced IL8 counterscreen.; type: functional; conditions: read-out: IC50_Mean
T5 sequence (P10145 whole entry): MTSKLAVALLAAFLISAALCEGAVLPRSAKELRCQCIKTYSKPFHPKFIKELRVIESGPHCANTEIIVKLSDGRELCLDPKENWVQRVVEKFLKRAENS

[13] = target: T5, Interleukin-8; assay: Dose Response confirmation of uHTS small molecule hits for cystic fibrosis induced NFkb Inhibitors in a PAF-induced IL8 counterscreen.; type: functional; conditions: read-out: IC50_Mean

IC50 [1]: 21.4 µM (active) | IC50 [2]: 8.11 µM (active) | EC50 [3]: 1.09 µM (active)
SMILES: CCOC(=O)C1(C)C=C(Nc2ccc(O)cc2)C(=O)N1c1ccc(O)cc1 (centres undefined)

IC50 [8]: 4.78 µM (active) | IC50 [9]: 3.13 µM (active) | EC50 [3]: 1.07 µM (active)
SMILES: COc1cc2ncc(S(=O)(=O)c3ccccc3)c(N3CCCC(C)C3)c2cc1OC (centres undefined)

IC50 [10]: 5.48 µM (active)
SMILES: CC(Nc1nc(-c2ccccc2F)nc2ccccc12)c1ccccc1 (centres undefined)

IC50 [12]: 0.969 µM (active) | IC50 [13]: 1.37 µM (active)
SMILES: COc1ccc(-c2csc(NC3OC(=O)c4c3ccc(OC)c4OC)n2)cc1OC (centres undefined)

Continued, molecule first:

SMILES: O=C(Cc1nc2ccccc2s1)c1ccc(O)cc1O
EC50 [4]: 0.691 µM (active) | EC50 [5]: > 180 µM (inactive) | EC50 [6]: > 160 µM (inactive) | EC50 [7]: > 160 µM (inactive)

SMILES: O=C(O)c1cnc2ccc(S(=O)(=O)N3CCN(c4ccc(F)cc4)CC3)cc2c1O
IC50 [10]: 50.6 µM (inactive) | IC50 [11]: > 10 µM (not active)

SMILES: N#C/C(=C\c1ccc(N2CCOCC2)cc1)c1ccccc1
EC50 [4]: 0.49 µM (active) | EC50 [5]: > 180 µM (inactive) | EC50 [6]: > 150 µM (inactive) | EC50 [7]: 68.9 µM (active)
